According to PubChem BioAssay AID624265 (Broad Institute, 2012):

Test system: NIH3T3 viability, CellTiter-Glo ATP luminescence
Assay: NIH3T3 cell viability loss, ATP content – CellTiter-Glo luminescence, cherry-pick, set 2, cytotoxicity control for HSP40 inhibitor project, dose response (AID 624265);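 also: cells exposed to compound for 48 hours before the ATP read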

## COc1ccc(O)c(C(=O)CC(=O)c2ccc(F)cc2)c1
  AC35: 52.3 µM

## C=C1C(=O)C23CCC4C(C)(C(=O)OC)CCCC4(C)C2CCC1(O)C3 (stereo unspecified)
  AC35: 10.1 µM

## CN(C)c1nc(-c2ccccn2)nnc1-c1ccccc1
  AC35: 43.5 µM

## CCCCNc1c(-c2cccc(Sc3ccc(OC)cc3)c2)nc2ccccn12
  AC35: 39.2 µM

## Cc1c(Cc2ccccc2)c(NCCN(C)C)n2c(nc3ccccc32)c1C#N
  AC35: 16.3 µM

## CC(C)N1CCN(c2ccc(OC[C@H]3CO[C@](Cn4cncn4)(c4ccc(Cl)cc4Cl)O3)cc2)CC1
  AC35: 30.8 µM

## CC1CCN(c2nc(-c3ccncc3)nc3ccccc23)CC1
  AC35: 49.6 µM

## CC1=CC(=O)C=C(C)C1=NOS(=O)(=O)c1ccccc1
  AC35: 27.6 µM

## CC[n+]1c(/C=C/C=C/c2ccc(N(C)C)cc2)sc2ccccc21
  AC35: 24.4 µM

## COc1cccc(/C=N/Nc2ncnc(Cl)c2N)c1O
  AC35: 47.2 µM

## CCC(=O)NC(c1ccco1)c1cc(Cl)c2cccnc2c1O (stereo unspecified)
  AC35: 49.1 µM

## CCCCOC(=O)/C=C/c1ccc(OC(=O)OC)c(OC(=O)OC)c1
  AC35: 50.7 µM

## Oc1ccc(/C=N/Nc2ccc(C(F)(F)F)cn2)c(O)c1
  AC35: 43.9 µM

## O=C(Nc1nc(-c2ccccn2)cs1)c1ccc(Br)s1
  AC35: 27.1 µM

## CN(C)c1ccc(C=c2c3ccccc3n3c2c2c([n+]3C)CCCC2)cc1
  AC35: 33.3 µM

## CC(=O)C1=C(c2ccc(Br)cc2)C(=O)c2ccccc2C1=O
  AC35: 26.2 µM
